Assays:
[1] = Assay B: Microsomal clearance; assay type: in vitro ADME, human; settings: pooled liver microsomes, 1 μM test compound, 37° C., NADPH
Procedure: Assay B: Microsomal Clearance:
The metabolic degradation of the test compound is assayed at 37° C. with pooled liver microsomes. The final incubation volume of 100 μl per time point contains TRIS buffer pH 7.6 at RT (0.1 M), magnesium chloride (5 mM), microsomal protein (1 mg/ml) and the test compound at a final concentration of 1 μM.
Following a short preincubation period at 37° C., the reactions are initiated by addition of beta-nicotinamide adenine dinucleotide phosphate, reduced form (NADPH, 1 mM) and terminated by transferring an aliquot into solvent after different time points (0, 5, 15, 30, 60 min). Additionally, the NADPH-independent degradation is monitored in incubations without NADPH, terminated at the last time point. The [%] remaining test compound after NADPH independent incubation is reflected by the parameter c(control) (metabolic stability). The quenched incubations are pelleted by centrifugation (10000 g, 5 min). An aliquot of the supernatant is assayed by LC-MS/MS for the amount of parent compound. The half-life (t½ INVITRO) is determined by the slope of the semilogarithmic plot of the concentration-time profile.
The intrinsic clearance (CL_[…]) is calculated by considering the amount of protein in the incubation: CL_[…] [μl/min/mg protein]=(Ln 2/(half-life [min]*protein content [mg/ml]))*1000 CL_[…]_INVIVO [ml/min/kg]=(CL_[…] [μL/min/mg protein]×MPPGL [mg protein/g liver]×liver factor [g/kg bodyweight])/1000 Qh[%]=CL[ml/min/kg]/hepatic blood flow [ml/min/kg])
(§1) Hepatocellularity, human: 120×10e6 cells/g liver
(§2) Liver factor, human: 25.7 g/kg bodyweight
(§3) Blood flow, human: 21 ml/(min×kg)

[2] = Assay C: Hepatocyte clearance; assay type: in vitro ADME, human; settings: hepatocyte suspension, 1 μM test compound, 5% species serum, six hours
Procedure: Assay C: Hepatocyte Clearance
The metabolic degradation of the test compound is assayed in a hepatocyte suspension. Hepatocytes (cryopreserved) are incubated in Dulbecco's modified eagle medium (supplemented with 3.5 μg glucagon/500 mL, 2.5 mg insulin/500 mL and 3.75 mg/500 mL hydrocortison) containing 5% species serum.
The cells are incubated for six hours (incubator, orbital shaker) and samples (25 μl) are taken at 0, 0.5, 1, 2, 4 and 6 hours. Samples are transferred into acetonitrile and pelleted by centrifugation (5 min). The supernatant is transferred to a new 96-deepwell plate, evaporated under nitrogen and resuspended.
Decline of Parent Compound is Analyzed by HPLC-MS/MS
CLint is calculated as follows CL_[…]=Dose/AUC=(CO/CD)/(AUD+clast/k)×1000/60. C0: initial concentration in the incubation [μM], CD: cell density of vital cells [10e6 cells/mL], AUD: area under the data [μM×h], clast: concentration of last data point [μM], k: slope of the regression line for parent decline [h−1].
The calculated in vitro hepatic intrinsic clearance can be scaled up to the intrinsic in vivo hepatic Clearance and used to predict hepatic in vivo blood clearance (CL) by the use of a liver model (well stirred model). CL_[…]_INVIVO [ml/min/kg]=(CL_[…] [μL/min/10e6 cells]×hepatocellularity [10e6 cells/g liver]×liver factor [g/kg bodyweight])/1000 CL[ml/min/kg]=CL_[…]_INVIVO [ml/min/kg]×hepatic blood flow [ml/min/kg]/(CL_[…]_INVIVO [ml/min/kg]+hepatic blood flow [ml/min/kg]) Qh[%]=CL[ml/min/kg]/hepatic blood flow [ml/min/kg])
as §1, §2, §3

human TRPA1 ion channel = biological target: T1, human TRPA1 ion channel (Homo sapiens, UniProt O75762); experiment: Assay A: TRPA1 assay (FLIPR, AITC-induced intracellular calcium in HEK293 cells); assay type: cell-based; settings: HEK293 cells over-expressing human TRPA1, AITC 10 μM, FLIPRtetra; read-out: hTRPA1 IC50
T1 construct: host or cells: HEK293
Procedure: A human HEK293 cell line over-expressing the human TRPA1 ion channel (Perkin Elmer, Product No. AX-004-PCL) is used as a test system for compound efficacy and potency. Compound activity is determined by measuring the effect of compounds on intracellular calcium concentration induced by AITC (Allylisothiocyanat) agonism in a FLIPRtetra system (Molecular Devices).
The cells are obtained as frozen cells in cryo-vials and stored until use at −150° C. Cells are grown in culture medium (MEM/EBSS medium with 10% FCS and 0.4 mg/ML Geneticin). […] For sub-culturing cells are detached from flasks by Versene. At the day before the assay, cells are detached, washed twice with medium (MEM/EBSS medium with 10% FCS) and 20000 cells in 20 μl/well are seeded to Poly D-Lysin biocoated 384-well plates (black, clear bottom, Cat. 356697) from Corning. Plates are incubated for 24 hours at 37° C./5% CO2 before use in the assay.
The test compounds are dissolved in 100% DMSO at a concentration of 10 mM and in a first step diluted in DMSO to a concentration of 5 mM, followed by serial dilution steps in 100% DMSO. Dilution factor and number of dilution steps may vary according to needs. Typically 8 different concentrations by 1:5 dilutions are prepared, further intermediate dilutions (1:20) of the substances are carried out with HBSS/HEPES buffer (1×HEPES, Cat. 14065 from Gibco, 20 mM HEPES, Cat. 83264 from SIGMA, 0.1% BSA Cat. 11926 from Invitrogen, pH 7.4
At the assay day cells are washed 3× with assay puffer, 20 μL buffer remaining in the wells after washing. 10 μL Ca6 kit (Cat. R8191 Molecular Devices) loading buffer in HBSS/HEPES is added to the cells and the plates are incubated with lid for 120 minutes at 37°/5% CO2. […] Finally 10 μL of the agonist AITC 50 μM dissolved in HBSS/HEPES buffer/0.05% DMSO (final concentration 10 μM) is added to the wells followed by an additional read on the FLIPRtetra device for 10 minutes. The area under the signal curve (AUC) after AITC addition is used for IC50/% inhibition calculations
Data Evaluation and Calculation:
Each assay microtiter plate contains wells with vehicle (1% DMSO) controls instead of compound as controls for AITC induced luminescence (100% CTL; high controls) and wells with vehicle controls without AITC as controls for non-specific changes in luminescence (0% CTL; low controls).
The analysis of the data is performed by the calculation of the area under signal curve of the individual wells. Based on this values the % value for the measurement of each substance concentration is calculated (AUC(sample)−AUC(low))*100/(AUC(high)−AUC(low)) using MegaLab software (in house development). The IC50 values are calculated from the % control values using MegaLab software. Calculation: [y=(a−d)/(1+(x/c)^b)+d], a=low value, d=high value; x=conc M; c=IC50 M; b=hill; y=% ctrl

T1 sequence (O75762 whole entry): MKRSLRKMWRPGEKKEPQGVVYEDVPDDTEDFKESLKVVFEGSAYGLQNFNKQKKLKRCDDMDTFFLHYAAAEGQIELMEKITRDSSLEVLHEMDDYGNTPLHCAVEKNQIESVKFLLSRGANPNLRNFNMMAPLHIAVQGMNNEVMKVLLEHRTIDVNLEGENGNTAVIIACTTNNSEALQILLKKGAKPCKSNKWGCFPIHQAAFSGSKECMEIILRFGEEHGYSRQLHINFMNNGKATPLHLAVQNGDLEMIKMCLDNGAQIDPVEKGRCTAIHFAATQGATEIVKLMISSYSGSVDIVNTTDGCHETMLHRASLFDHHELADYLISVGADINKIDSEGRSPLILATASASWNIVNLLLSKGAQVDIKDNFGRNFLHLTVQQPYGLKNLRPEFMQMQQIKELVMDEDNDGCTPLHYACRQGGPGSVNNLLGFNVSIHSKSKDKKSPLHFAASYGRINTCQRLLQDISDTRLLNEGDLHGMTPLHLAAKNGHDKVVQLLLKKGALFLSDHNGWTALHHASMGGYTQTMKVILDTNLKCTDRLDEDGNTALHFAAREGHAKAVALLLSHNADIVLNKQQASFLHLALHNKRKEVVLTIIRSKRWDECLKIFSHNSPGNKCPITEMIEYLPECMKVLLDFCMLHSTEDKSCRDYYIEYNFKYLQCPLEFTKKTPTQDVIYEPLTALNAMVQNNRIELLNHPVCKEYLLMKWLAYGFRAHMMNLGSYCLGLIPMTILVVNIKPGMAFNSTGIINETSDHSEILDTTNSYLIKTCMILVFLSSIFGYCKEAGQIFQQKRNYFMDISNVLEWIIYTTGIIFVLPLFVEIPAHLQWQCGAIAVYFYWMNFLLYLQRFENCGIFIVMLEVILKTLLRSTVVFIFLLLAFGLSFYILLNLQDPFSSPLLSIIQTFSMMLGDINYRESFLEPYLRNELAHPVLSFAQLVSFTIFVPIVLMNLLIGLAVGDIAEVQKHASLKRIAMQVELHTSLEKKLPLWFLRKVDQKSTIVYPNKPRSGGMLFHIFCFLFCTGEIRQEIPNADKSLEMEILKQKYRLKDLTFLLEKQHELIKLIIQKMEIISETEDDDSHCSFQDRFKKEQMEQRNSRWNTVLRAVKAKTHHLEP

human LM [% Qh] [1] | human Hepatocytes [% Qh] [2] | IC50 (human TRPA1 ion channel) | SMILES
33 % Qh | 19 % Qh |  | NC(=O)c1csc2ncn(Cc3nnn(C[C@H](O)c4cc5ccc(F)cc5s4)n3)c(=O)c12 [Example 2]
26 % Qh | 20 % Qh | 26 nM | NC(=O)c1csc2ncn(Cc3nnn(C[C@H](O)c4cc5cc(Cl)c(F)cc5o4)n3)c(=O)c12 [Example 8]
27 % Qh | 26 % Qh |  | NC(=O)c1csc2ncn(Cc3nnn(C[C@H](O)c4cc5cc(Cl)ccc5o4)n3)c(=O)c12 [Example 3]
<23 % Qh | <4 % Qh | 28 nM | NC(=O)c1csc2ncn(Cc3nnn(C[C@H](O)c4ccc(Cl)cc4)n3)c(=O)c12 [Example 1, 3-({2-[(2R)-2-(4-chlorophenyl)-2-hydroxyethyl]-2H-1,2,3,4-tetrazol-5-yl}methyl)-4-oxo-3H,4H-thieno[2,3-d]pyrimidine-5-carboxamide]
<23 % Qh | 10 % Qh | 37 nM | NC(=O)c1csc2ncn(Cc3nnn(C[C@H](O)c4cc5cc(F)c(F)cc5o4)n3)c(=O)c12 [Example 13]
<23 % Qh | <4 % Qh | 143 nM | N#Cc1ccc([C@@H](O)Cn2nnc(Cn3cnc4scc(C(N)=O)c4c3=O)n2)s1 [Example 18]
<23 % Qh | 6 % Qh |  | NC(=O)c1csc2ncn(Cc3nnn(C[C@H](O)c4ccc5oc(F)cc5c4)n3)c(=O)c12 [Example 4]
<23 % Qh | 30 % Qh | 65 nM | NC(=O)c1csc2ncn(Cc3nnn(C[C@H](O)c4cc5cc(F)c(Cl)cc5o4)n3)c(=O)c12 [Example 15]
34 % Qh | 41 % Qh |  | NC(=O)c1csc2ncn(Cc3nnn(C[C@H](O)c4cc(Cl)c(Cl)s4)n3)c(=O)c12 [Example 7]

More lines, now with the values behind:

SMILES | human LM [% Qh] [1] | human Hepatocytes [% Qh] [2] | IC50 (human TRPA1 ion channel)
NC(=O)c1csc2ncn(Cc3nnn(C[C@H](O)c4ccc(Cl)s4)n3)c(=O)c12 [Example 11] | <23 % Qh | 14 % Qh | 31 nM
NC(=O)c1csc2ncn(Cc3nnn(C[C@H](O)c4ccc(Br)cc4)n3)c(=O)c12 [Example 12] | <23 % Qh | <4 % Qh | 34 nM
NC(=O)c1csc2ncn(Cc3nnn(C[C@H](O)c4cc5ccccc5s4)n3)c(=O)c12 [Example 5] | 28 % Qh | 20 % Qh | 
N#Cc1cc2ccc([C@@H](O)Cn3nnc(Cn4cnc5scc(C(N)=O)c5c4=O)n3)cc2o1 [Example 16] | <23 % Qh | 19 % Qh | 70 nM
NC(=O)c1csc2ncn(Cc3nnn(C[C@H](O)c4cc5cc(F)ccc5o4)n3)c(=O)c12 [Example 6] | <23 % Qh | 26 % Qh | 
NC(=O)c1csc2ncn(Cc3nnn(C[C@H](O)c4cc5cccc(F)c5o4)n3)c(=O)c12 [Example 14] | <23 % Qh | 14 % Qh | 41 nM
COc1ccc([C@@H](O)Cn2nnc(Cn3cnc4scc(C(N)=O)c4c3=O)n2)cc1 [Example 17] | <23 % Qh | 18 % Qh | 131 nM
NC(=O)c1csc2ncn(Cc3nnn(C[C@H](O)c4cc5ccccc5o4)n3)c(=O)c12 [Example 9] | <23 % Qh | 14 % Qh | 29 nM
Cc1ccc([C@@H](O)Cn2nnc(Cn3cnc4scc(C(N)=O)c4c3=O)n2)cc1 [Example 10] | <23 % Qh | 8 % Qh | 31 nM
